What was measured:
Assay type in all cases: cell-based
M2 muscarinic receptor = target: T1, M2 muscarinic receptor (Homo sapiens, UniProt P08172); experiment: Functional mobilization of intracellular calcium (FLIPR), M2-CHO cells; details: for M2 Activity: M2-CHO cells, calcium mobilization (FLIPR)
T1 construct: expressed in transfected cells; host or cells: CHO (M2-CHO)
T1 sequence (P08172 1-466): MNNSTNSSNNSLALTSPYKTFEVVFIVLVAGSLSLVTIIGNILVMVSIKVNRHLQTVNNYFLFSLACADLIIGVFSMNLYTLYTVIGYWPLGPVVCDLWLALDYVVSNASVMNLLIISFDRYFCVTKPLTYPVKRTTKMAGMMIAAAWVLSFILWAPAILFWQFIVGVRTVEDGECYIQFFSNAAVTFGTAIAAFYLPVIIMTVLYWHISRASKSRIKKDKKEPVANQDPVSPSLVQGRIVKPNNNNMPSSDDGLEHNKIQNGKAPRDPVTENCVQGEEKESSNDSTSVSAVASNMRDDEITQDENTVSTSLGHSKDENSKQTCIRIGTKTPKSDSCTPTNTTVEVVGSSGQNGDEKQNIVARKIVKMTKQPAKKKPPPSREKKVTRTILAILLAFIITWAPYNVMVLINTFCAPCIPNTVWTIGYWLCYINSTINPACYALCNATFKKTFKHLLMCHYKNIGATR
Outline: (§1)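 Calcium mobilisation read by FLIPR over 60 s (ex 488/em 540 nm) in recombinant muscarinic CHO lines loaded with calcium dye plus 1 mM probenecid. Compounds tested as agonists alone, or as inhibitors against EC80 carbachol after 15 min pre-incubation or co-addition; 0.5% DMSO; efficacy scaled to carbachol maximal response.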

M4 muscarinic receptor = target: T2, M4 muscarinic receptor (Homo sapiens, UniProt P08173); experiment: Functional mobilization of intracellular calcium (FLIPR), M4-CHO cells; details: for M4 Activity: M4-CHO cells, calcium mobilization (FLIPR)
T2 construct: expressed in transfected cells; host or cells: CHO (M4-CHO)
T2 sequence (P08173 1-479): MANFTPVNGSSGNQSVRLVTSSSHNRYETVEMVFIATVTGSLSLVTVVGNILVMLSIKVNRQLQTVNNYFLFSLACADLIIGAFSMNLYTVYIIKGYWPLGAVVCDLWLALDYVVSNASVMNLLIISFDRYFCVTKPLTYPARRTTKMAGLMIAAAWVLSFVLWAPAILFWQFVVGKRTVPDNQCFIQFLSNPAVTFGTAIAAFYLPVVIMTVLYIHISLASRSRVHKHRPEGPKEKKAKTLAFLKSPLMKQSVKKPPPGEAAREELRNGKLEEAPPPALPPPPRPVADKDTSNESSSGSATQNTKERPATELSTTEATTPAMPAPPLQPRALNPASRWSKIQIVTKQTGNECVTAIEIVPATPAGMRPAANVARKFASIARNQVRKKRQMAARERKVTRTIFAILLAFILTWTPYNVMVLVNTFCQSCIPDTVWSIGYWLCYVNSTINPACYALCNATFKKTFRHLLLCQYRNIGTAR
Outline: as §1

M1 muscarinic receptor = target: T3, M1 muscarinic receptor (Homo sapiens, UniProt P11229); experiment: Functional mobilization of intracellular calcium (FLIPR), M1-CHO cells; details: for M1 Activity: M1-CHO cells, calcium mobilization (FLIPR)
T3 construct: expressed in transfected cells; host or cells: CHO (M1-CHO)
T3 sequence (P11229 1-460): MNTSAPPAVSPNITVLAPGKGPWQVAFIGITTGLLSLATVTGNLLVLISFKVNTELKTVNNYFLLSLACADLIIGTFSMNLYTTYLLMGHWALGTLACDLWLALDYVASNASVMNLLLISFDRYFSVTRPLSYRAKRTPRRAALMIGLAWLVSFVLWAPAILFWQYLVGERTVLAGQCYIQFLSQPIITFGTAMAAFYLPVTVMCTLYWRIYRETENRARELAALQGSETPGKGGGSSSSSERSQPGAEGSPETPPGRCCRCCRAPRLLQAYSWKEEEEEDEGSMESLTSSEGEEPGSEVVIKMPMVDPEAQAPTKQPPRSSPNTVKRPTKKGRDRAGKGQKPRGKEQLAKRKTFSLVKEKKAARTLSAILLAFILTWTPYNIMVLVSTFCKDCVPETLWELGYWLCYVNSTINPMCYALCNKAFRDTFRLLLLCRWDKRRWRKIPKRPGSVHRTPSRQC
Outline: as §1

M3 muscarinic receptor = target: T4, M3 muscarinic receptor (Homo sapiens, UniProt P20309); experiment: Functional mobilization of intracellular calcium (FLIPR), M3-CHO cells; details: for M3 Activity: M3-CHO cells, calcium mobilization (FLIPR)
T4 construct: expressed in transfected cells; host or cells: CHO (M3-CHO)
T4 sequence (P20309 whole entry): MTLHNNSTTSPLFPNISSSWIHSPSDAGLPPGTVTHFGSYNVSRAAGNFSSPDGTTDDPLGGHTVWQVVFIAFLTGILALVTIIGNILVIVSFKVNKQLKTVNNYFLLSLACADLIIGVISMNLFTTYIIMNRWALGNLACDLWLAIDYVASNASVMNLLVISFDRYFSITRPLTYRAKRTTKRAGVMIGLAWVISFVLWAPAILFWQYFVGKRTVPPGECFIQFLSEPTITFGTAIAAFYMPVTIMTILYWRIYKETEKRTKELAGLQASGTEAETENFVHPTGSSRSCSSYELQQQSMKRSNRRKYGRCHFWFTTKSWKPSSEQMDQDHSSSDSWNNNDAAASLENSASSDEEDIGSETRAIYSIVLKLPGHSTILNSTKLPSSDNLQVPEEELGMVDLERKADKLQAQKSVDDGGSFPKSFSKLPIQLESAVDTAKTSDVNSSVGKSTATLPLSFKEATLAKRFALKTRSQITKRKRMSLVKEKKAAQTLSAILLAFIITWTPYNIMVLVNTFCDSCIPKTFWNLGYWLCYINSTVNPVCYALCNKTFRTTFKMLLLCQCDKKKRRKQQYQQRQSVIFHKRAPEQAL
Outline: as §1

[1] = 100% efficacy = maximum response obtained with the Carbachol control

Row | Structure (SMILES) | Emax (M2 muscarinic receptor; [1]) | M2 Activity (M2 muscarinic receptor) | Emax (M4 muscarinic receptor; [1]) | M4 Activity (M4 muscarinic receptor) | Emax (M1 muscarinic receptor; [1]) | M1 Activity (M1 muscarinic receptor) | Emax (M3 muscarinic receptor; [1]) | M3 Activity (M3 muscarinic receptor) | M2 Efficacy (M2 muscarinic receptor; [1]) | M4 Efficacy (M4 muscarinic receptor; [1]) | M1 Efficacy (M1 muscarinic receptor; [1]) | M3 Efficacy (M3 muscarinic receptor; [1])
1 | CCCOc1ccccc1C1CCN([C@H]2C[C@H]3CC[C@H]2C3)CC1 [Compound 47] | < 25% | + (activity was measured to be greater than 5.0 μM) | 25 to 100% | ++ (activity was measured to be from 1.0 μM to 5.0 μM) | 25 to 100% | + (activity was measured to be greater than 5.0 μM) | < 25% | + (activity was measured to be greater than 5.0 μM) | – | – | – | –
2 | COc1ccc(-c2ccc(F)cc2F)cc1C1CCN([C@H]2C[C@H]3CC[C@H]2C3)CC1 [Compound 48] | < 25% | + (activity was measured to be greater than 5.0 μM) | 25 to 100% | + (activity was measured to be greater than 5.0 μM) | 25 to 100% | + (activity was measured to be greater than 5.0 μM) | < 25% | + (activity was measured to be greater than 5.0 μM) | – | – | – | –
3 | COc1cc(F)c(F)c(C2CCN(C3CCOCC3)CC2)c1 [Compound 49] | < 25% | + (activity was measured to be greater than 5.0 μM) | 25 to 100% | +++ (activity was measured to be less than 1.0 μM) | 25 to 100% | + (activity was measured to be greater than 5.0 μM) | < 25% | + (activity was measured to be greater than 5.0 μM) | – | – | – | –
4 | COc1ccc(C(=O)c2ccccc2)cc1C1CCN([C@H]2C[C@H]3CC[C@H]2C3)CC1 [Compound 50] | < 25% | + (activity was measured to be greater than 5.0 μM) | 25 to 100% | ++ (activity was measured to be from 1.0 μM to 5.0 μM) | 25 to 100% | + (activity was measured to be greater than 5.0 μM) | < 25% | + (activity was measured to be greater than 5.0 μM) | – | – | – | –
5 | COc1ccc(C)cc1C1CCN(C2C[C@H]3CC[C@H]2C3)CC1 (some centres unmarked) [Compound 51] | 25 to 100% | + (activity was measured to be greater than 5.0 μM) | 25 to 100% | +++ (activity was measured to be less than 1.0 μM) | 25 to 100% | ++ (activity was measured to be from 1.0 μM to 5.0 μM) | < 25% | + (activity was measured to be greater than 5.0 μM) | – | – | – | –
6 | COc1ccc(-c2ccc3c(c2)OCO3)cc1C1CCN(C2CCOCC2)CC1 [Compound 52] | < 25% | + (activity was measured to be greater than 5.0 μM) | 25 to 100% | + (activity was measured to be greater than 5.0 μM) | < 25% | + (activity was measured to be greater than 5.0 μM) | < 25% | + (activity was measured to be greater than 5.0 μM) | – | – | – | –
7 | COc1ccc(Cl)cc1C1CCN(C2CCC(=NOC3CCCCO3)CC2)CC1 (centres unmarked) [Compound 54] | – | + (activity was measured to be greater than 5.0 μM) | – | +++ (activity was measured to be less than 1.0 μM) | – | ++ (activity was measured to be from 1.0 μM to 5.0 μM) | – | + (activity was measured to be greater than 5.0 μM) | + (efficacy was calculated to be less than 25%) | ++ (efficacy was calculated to be from 100% to 25%) | ++ (efficacy was calculated to be from 100% to 25%) | + (efficacy was calculated to be less than 25%)
8 | COc1ccc(C(=O)COc2ccccc2C2CCN([C@H]3C[C@H]4CC[C@H]3C4)CC2)cc1 [Compound 57] | 25 to 100% | ++ (activity was measured to be from 1.0 μM to 5.0 μM) | 25 to 100% | ++ (activity was measured to be from 1.0 μM to 5.0 μM) | 25 to 100% | ++ (activity was measured to be from 1.0 μM to 5.0 μM) | < 25% | + (activity was measured to be greater than 5.0 μM) | – | – | – | –
9 | COc1ccc(F)cc1C1(F)CCN(C2CCCCC2)CC1 [Compound 59] | < 25% | + (activity was measured to be greater than 5.0 μM) | 25 to 100% | ++ (activity was measured to be from 1.0 μM to 5.0 μM) | 25 to 100% | + (activity was measured to be greater than 5.0 μM) | < 25% | + (activity was measured to be greater than 5.0 μM) | – | – | – | –
10 | COc1ccc(F)cc1C1(O)CCN(C[C@@H]2C[C@H]3C=C[C@H]2C3)CC1 [Compound 60] | < 25% | + (activity was measured to be greater than 5.0 μM) | 25 to 100% | ++ (activity was measured to be from 1.0 μM to 5.0 μM) | < 25% | + (activity was measured to be greater than 5.0 μM) | < 25% | + (activity was measured to be greater than 5.0 μM) | – | – | – | –
11 | Cc1ccc(C)c(C2(O)CCN(CC3CC4C=CC3C4)CC2)c1 (centres unmarked) [Compound 62, 1-((bicyclo[2.2.1]hept-5-en-2-yl)methyl)-4-(2,5-dimethylphenyl)piperidin-4-ol] | < 25% | + (activity was measured to be greater than 5.0 μM) | 25 to 100% | ++ (activity was measured to be from 1.0 μM to 5.0 μM) | 25 to 100% | ++ (activity was measured to be from 1.0 μM to 5.0 μM) | – | + (activity was measured to be greater than 5.0 μM) | – | – | – | –
12 | CCOC(=O)N1CCC(CN2CCC(c3cc(F)cc(F)c3OC)CC2)CC1 [Compound 65] | < 25% | + (activity was measured to be greater than 5.0 μM) | 25 to 100% | +++ (activity was measured to be less than 1.0 μM) | 25 to 100% | +++ (activity was measured to be less than 1.0 μM) | < 25% | + (activity was measured to be greater than 5.0 μM) | – | – | – | –
